Results as given in article PMC4738272 (Scientific Reports, 2016).
Several values for one entry are separate records, joined by “and”; a condition that tells them apart may be missing. Equal entries are not always repeated.

Key:
[1] = tested on: HepG2/C3A; assay: MTT viability of liver module in 4-organ system; type: cell-based, human; conditions: 4-organ co-culture under flow, serum-free medium, 48 h drug treatment, day 7, vs control, DOX 5 μM, ATR 100 μM, VPA 2 mM, APAP 5 mM, AMAP 5 mM
Source text: (§1) The four organ in vitro systems were assembled, on day 0, by placing the corresponding surfaces cell side up in a specific chamber of the housing (liver coverslip into chamber 1, cardiac coverslips and cantilevers into chambers 2 and 4, muscle coverslips into chamber 5, and neuron coverslips into chamber 3 and they were then topped with the serum-free co-culture medium (1X Neurobasal Medium, 1X B27, 1X AB/AM, 1X Glutamax (all from Life Technologies)) before locking the system. Right after assembling, the medium was completely replaced with 4 mL of the co-culture defined serum-free medium and the systems placed on a rocking platform inside an incubator. Platforms were checked every day by inspecting for expected cell morphology inside the system and by replacing medium (1.2 mL total volume) from the two reservoirs (30% of the total volume was replaced) with fresh medium. Drug incubation was initiated on day 5 of the co-culture by addition of the drug through the reservoir closer to the liver chamber (no. 1), allowing a first contact of the drug with the liver. 20 μL of the drug stock solution (or vehicle) to achieve a working concentration in 4 mL of total volume in the platform was utilized. On day 6, after 24 hours of drug incubation, 6 μL of the drug stock solution (or vehicle) was added to the fresh medium exchange volume (1.2 mL). After 48 hour of drug incubation, on day 7, systems were disassembled to test organ functionality that same day. For mono-culture conditions, surfaces remained in a 12-well plated with 1 mL of the co-culture defined serum-free medium maintained by daily replacement of half volume.
(§2) Seven days after the initiation of the co-culture, viability of each organ chamber, except for neurons, was evaluated through an MTT assay. […] Cell viability was measured at 570 nm in a Synergy HT plate reader and KC4 software. The results were expressed as the percentage of cell survival relative to the control (untreated or incubated with vehicle). The neuronal fraction viability was evaluated through morphological analysis throughout the co-culture experiment as the final coverslips were used for patch-clamp electrophysiology. Phase images (10X) where obtained every day of the co-culture. Neuronal viability was evaluated by cell morphology integrity and by cell count from day 1 to day 14.

[2] = tested on: HepG2/C3A; assay: Urea quantification, liver fraction of 4-organ system; type: cell-based, human; conditions: 4-organ co-culture under flow, 48 h drug treatment, vs control, DOX 5 μM, ATR 100 μM, APAP 5 mM, AMAP 5 mM
[3] = tested on: HepG2/C3A; assay: Human Serum Albumin quantification (ELISA), liver fraction of 4-organ system; type: cell-based; conditions: 4-organ co-culture under flow, 48 h drug treatment, vs control, DOX 5 μM, ATR 100 μM, VPA 2 mM, APAP 5 mM, AMAP 5 mM
Method: Human Serum Albumin (HSA) production from the liver fraction was tracked throughout the co-culture, by measuring the HSA concentration in the supernatant of the culture as it represents liver protein anabolism. Samples were collected from the exchanged medium (1.2 mL) and stored at −20 °C until analysis. One freeze-thaw cycle occurred before samples were analyzed following manufacturers’ instructions provided in the ELISA Starter Accessory Kit (Bethyl Laboratories Inc, Cat #: E101). Samples were diluted as necessary in sample conjugate/diluent buffer to ensure readings measured within the range of the standard curve. The standard curve was prepared by serial dilutions of human reference serum in sample conjugate/diluent buffer (0–1600 ng/ml).
Final HSA concentrations were calculated in an excel file by first removing the average OD reading measured for blanks from average sample and standard OD readings. Concentrations of standard dilutions were plotted against average OD values measured in XY scatter plots. A standard curve was created by adding an order of 2 polynomial trendline to XY scatter plots and selecting the option to display the equation of the trendline, as well as the R^2 value, on each scatter plot (for ease of analysis HSA sigmoidal curves were split into 3 standard curves with HSA concentration ranges of 0–200 ng/ml, 200–800 ng/ml and […]). Quadratic equations were rearranged to make X (sample HSA concentration) the unknown variant. Y values (OD values) and a/b/c constants generated from trendline equations were inputted into rearranged quadratic equations per assay. HSA concentrations calculated were corrected accordingly for any differences in culture final volumes, sample dilutions during assays and cells number.

[4] = tested on: iPSc differentiated Cardiomyocytes; assay: Cardiac beating frequency from video recordings; type: cell-based, human; conditions: 4-organ co-culture under flow, 48 h drug treatment, day 7, vs control, DOX 5 μM, AMAP 5 mM
Method: Seven or fourteen days after the co-culture, cardiac beating frequency was quantified from video recordings of three different areas of each of the cMEA surfaces, where the cardiomyocytes culture where located. Surfaces were located in a 37 °C bath platform containing co-culture medium with 50 mM HEPES on the stage of a Zeiss Axioscope 2FS upright microscope. Beats were counted in a period of 10 s, and the average number of 3 values was obtained. Drug effect was plotted as percentage of change compared to the control conditions.

[5] = tested on: Human Skeletal Myofibers; assay: Myotube stimulated contraction (binary: contracting or not); type: cell-based; conditions: 4-organ co-culture under flow, 48 h drug treatment, day 7, broad-field electrical stimulation, DOX 5 μM, ATR 100 μM, VPA 2 mM, APAP 5 mM, AMAP 5 mM
Method: Myotube contraction in coverslips was evaluated after the co-culture was finalized. Individual surfaces were evaluated as previously reported in the group. Drugs effects were quantify in a binary code mode, cells were or were not contracting.

[6] = tested on: neurons; assay: Neuron electrophysiology recording (patch clamp); type: cell-based, human; conditions: 4-organ co-culture under flow, 48 h drug treatment, day 7, vs control, DOX 5 μM, ATR 100 μM
Source text: Electrophysiological properties of neuron cultures where recorded on the last day of co-culture following a previously described method. Values of firing, repetitive firing, spontaneous firing, inward sodium current, outward potassium current, action potential peak voltage and the resting membrane potential, characterized the mature functionality of neurons in the in vitro system. Drug alterations of the neuronal electrophysiology are discussed in this manuscript.

[7] = tested on: skeletal muscle cells; assay: Bright-field imaging of skeletal muscle morphology in 4-organ system; type: cell-based, human; conditions: 4-organ co-culture under flow, DOX 5 μM, 48 h
Source text: Cell morphology and function were studied each day with an inverted bright-field microscope (Carl Zeiss) using a 10X objective. This working distance allowed the imaging of the cells in the specific surfaces inside the housing. Images of each fraction and systems were collected with an Axio Cam and AxioVision AC software to study morphological or functional changes in the co-culture chamber for each organ.

[8] = tested on: Liver; parameters: method as in Literature; conditions: general toxic effects reported in the literature; ref Literature; cited from earlier work
[9] = tested on: Muscle; parameters: method as in Literature; conditions: general toxic effects reported in the literature; ref Literature; cited from earlier work
[10] = tested on: Neurons; parameters: method as in Literature; conditions: general toxic effects reported in the literature; ref Literature; cited from earlier work
[11] = tested on: Cardiomyocytes; parameters: method as in Literature; conditions: general toxic effects reported in the literature; ref Literature; cited from earlier work
[12] = cited from earlier work
[13] = tested on: liver; conditions: patients undergoing DOX treatment; cited from earlier work
[14] = tested on: neuron; parameters: method as in PMID 17298386; conditions: 1uM DOX for 24 hours; read-out: Neuron viability drop; cited from earlier work
[15] = tested on: iPSc differentiated Cardiomyocytes; assay: MTT viability of cardiac module in 4-organ system; conditions: 4-organ co-culture under flow, serum-free medium, 48 h drug treatment, day 7, vs control, DOX 5 μM, ATR 100 μM, VPA 2 mM, APAP 5 mM, AMAP 5 mM
Source text: as §1, §2

[16] = tested on: Human Skeletal Myofibers; assay: MTT viability of skeletal muscle module in 4-organ system; conditions: 4-organ co-culture under flow, serum-free medium, 48 h drug treatment, day 7, vs control; DOX 5 μM, ATR 100 μM, VPA 2 mM, APAP 5 mM, AMAP 5 mM
Source text: as §1, §2

[17] = tested on: neurons; assay: Neuronal viability by morphological analysis and cell count in 4-organ system; conditions: 4-organ co-culture under flow, serum-free medium, 48 h drug treatment, day 7, vs control, DOX 5 μM, ATR 100 μM, VPA 2 mM, APAP 5 mM, AMAP 5 mM
Source text: as §1, §2

## COc1cccc2c1C(=O)c1c(O)c3c(c(O)c1C2=O)C[C@@](O)(C(=O)CO)C[C@@H]3O[C@H]1C[C@H](N)[C@H](O)[C@H](C)O1 [Doxorubicin]
[1]
  Liver (hepatocyte) cell viability, loss: 49 ± 10% loss
[1]; listed as DOX
  Liver (hepatocyte) cell viability, loss: 49 ± 10%
[2]
  Urea production, increase: HSA and Urea not affected( ^*)
[2]; listed as DOX
  Urea production, increase: No effects
[3]
  HSA (albumin) production, increase: HSA and Urea not affected( ^*)
[3]; listed as DOX
  HSA (albumin) production, increase: No effects
[4]
  Cardiomyocyte beating rate (beat frequency), decrease: 47 ± 9% decrease in beating rate
[4]; listed as DOX
  Cardiomyocyte beating rate (beat frequency), decrease: 47 ± 9%
[5]
  Skeletal muscle loss of contractile ability (share of cultures in which contraction ceased): 60% loss of contractile ability
[5]; listed as DOX
  Skeletal muscle loss of contractile ability (share of cultures in which contraction ceased): 60%
[6]
  Neuronal action potential peak voltage and resting membrane potential (DOX also peak ionic currents): not significantly different
[6]; APAP 5 mM
  Neuronal ion currents and firing of stimulated action potentials: no changes
[6]; APAP 5 mM, AMAP 5 mM, listed as DOX
  Neuronal repetitive and spontaneous firing ability: not observed after treatment
[6]; VPA 2 mM, APAP 5 mM, AMAP 5 mM
  Neuronal electrophysiology, overall effect: Electrophysiology affected
[7]
  Muscle morphology: not affected
[8]
  Drug effects on cell functionality, Liver, Literature: May be compromised
  Drug effects on cell viability, Liver, Literature: Toxicity reported
[9]
  Drug effects on cell functionality, Muscle, Literature: Toxicity at higher concentrations
  Drug effects on cell viability, Muscle, Literature: Toxicity at higher concentrations
[10]
  Drug effects on cell functionality, Neurons, Literature: Neurologic disturbances ( ^**)
  Drug effects on cell viability, Neurons, Literature: Neurologic disturbances ( ^**)
[11]
  Drug effects on cell functionality, Cardiomyocytes, Literature: Compromised
  Drug effects on cell viability, Cardiomyocytes, Literature: Toxicity reported
[12]; patients
  Patient plasma concentrations typically detected: 0.5 to 1 µM
[12]; typically
  Concentration in mitochondria relative to plasma levels: 100 times
[13]
  Patients undergoing treatment that show hepatotoxicity: 40%
[14]
  cytotoxicity: 25%
[15]
  Cardiomyocyte viability, loss: 65 ± 6% loss
[15]; listed as DOX
  Cardiomyocyte viability, loss: 65 ± 6%
[16]
  Skeletal muscle viability, loss: Toxicity not observed
[17]
  Neuronal cell viability, loss (cell loss by morphology/cell count): 33 ± 13% loss of cell viability
[17]; listed as DOX
  Neuronal cell viability, loss (cell loss by morphology/cell count): 33 ± 18% and 33 ± 13%
